Reference: patent US6518312B2, “Immune enhancement” (Active Biotech AB, priority 2000, dated 2003)

System: transcription factor AP-1
Experiment: AP-1-driven luciferase reporter gene assay in transfected Jurkat T cells (Jurkat/AP-1rep)
Format: cell-based
Settings: Jurkat/AP-1rep cells stimulated 5.5 h at 37° C. with phorbol myristate acetate and ionomycin; FIG. 1
Description: The compounds of formula (I) were assayed for AP-1 enhancement. The compounds of this invention were tested in assays for the modulation of stimulated activity of an AP-1-driven reporter gene in the Jurkat T cell line. The activation of this reporter gene results in luciferase production and the amounts of produced luciferase parallels the level of AP-1 activity. A high level of AP-1 activity is pivotal to e.g. high production of IL-2.
Cells from the Jurkat T cell line were transfected with an AP-1-driven luciferase gene reporter construct (Parra et al., 1997) together with a selection gene vector. Selected clones from the resulting stable AP-1 reporter gene transfectants were used in the assays for AP-1 transcription factor activity. These transfected Jurkat cells (Jurkat/AP-1rep) were grown in RPMI 1640 supplemented with glutamine, hepes, sodium pyruvate, gentamicin, 10% FCS and G418. To evaluate distinct compounds for their capacity to enhance the AP-1 activity, Jurkat/AP-1rep cells were stimulated for 5.5 h in the temperature of 37° C. with phorbol myristate acetate and ionomycin in the absence and presence of test compounds. The 96 well plates containing the cell cultures were then put on ice until harvested. […] AP-1 activity was measured as luminiscence produced by luciferase substrate, which was added to the wells in conjunction with measurement.

CCN(CC)C(C)CNC(=O)c1ccc(NC(=O)C(C)C)cc1OC (stereo not shown) [Compound A, N-[(2-Diethylamino)propyl]-4-isobutyrylamino-2-methoxy-benzamide]
enhancement of the AP-1 driven reporter gene activity (luciferase luminescence): enhance the activity of the AP-1 driven reporter in a dose dependent fashion down to μM concentrations
